The source of these data is patent US6492377B1, “Imidazotriazolopyrimidines with adenosine-antagonistic activity” (Boehringer Ingelheim Pharma KG, priority 1998, dated 2002).

In test [1] the target is T1, human A1 adenosine Receptor (Homo sapiens, UniProt P30542).
T1 sequence (P30542 1-326): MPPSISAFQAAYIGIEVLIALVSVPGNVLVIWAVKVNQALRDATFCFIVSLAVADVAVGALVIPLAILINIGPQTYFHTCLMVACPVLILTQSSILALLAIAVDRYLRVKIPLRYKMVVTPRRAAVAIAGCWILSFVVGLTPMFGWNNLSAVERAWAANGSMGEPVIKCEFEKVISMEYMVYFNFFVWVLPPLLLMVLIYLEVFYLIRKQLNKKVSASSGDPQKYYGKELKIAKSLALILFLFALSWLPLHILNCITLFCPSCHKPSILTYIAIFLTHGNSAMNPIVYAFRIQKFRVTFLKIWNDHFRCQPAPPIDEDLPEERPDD
As to the kind of experiment: KiA1 (human) receptor binding. The method, then:
The receptor binding values described hereinafter were determined analogously to Ensinger et al. in “Cloning and functional characterisation of human A1 adenosine Receptor—Biochemical and Biophysical Communications, Vol 187, No. 2, 919-926, 1992”.
The Table which follows contains KiA1 (human) receptor binding values.

For test [2], the target named is T2, human A3-adenosine receptor (Homo sapiens, UniProt P0DMS8).
T2 sequence (P0DMS8 1-318): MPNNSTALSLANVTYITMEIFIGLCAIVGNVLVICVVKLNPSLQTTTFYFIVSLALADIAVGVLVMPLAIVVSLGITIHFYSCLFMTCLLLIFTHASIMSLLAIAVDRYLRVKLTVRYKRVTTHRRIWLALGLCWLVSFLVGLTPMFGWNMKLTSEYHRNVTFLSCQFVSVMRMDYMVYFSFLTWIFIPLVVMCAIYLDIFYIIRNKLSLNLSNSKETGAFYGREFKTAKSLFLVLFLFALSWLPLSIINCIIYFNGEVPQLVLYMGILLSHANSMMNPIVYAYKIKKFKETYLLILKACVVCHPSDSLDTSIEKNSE
As to the kind of experiment: KiA3 (human) receptor binding. The method, then: The A3 receptor binding values given hereinafter were determined analogously to […]. “Molecular cloning and characterization of the human A3-adenosine receptor” (Proc. Natl. Acad. Sci. USA 90, 10365-10369, 1993).

pKi: −log10 of the molar value.

“4-Ethyl-2-(2-phenylethyl)-7-n-propyl-imidazo[4.5-e]-s-triazolo[1.5-a]pyrimidin-5-one [Example 83]”: in test [1], the negative-log Ki (pKi) is 8.09.
For the substance “4-Ethyl-7-methyl-2-(2-phenylethyl)-imidazo[4.5-e]-s-triazolo[1.5-a]pyrimidin-5-one [Example 81]”, in test [2], the pKi is 8.14.
